Where two headings read alike, the source gives them in different places.
Legend:
[1] = test system: M. grisea spores; type: cell-based, Magnaporthe grisea
[2] = test system: Mycosphaerella graminicola; type: cell-based
[3] = test system: Magnaporthe grisea strain P1.2; type: cell-based; settings: for mean percentage of growth of the M. grisea fungus: 5th day, control = 100%
[4] = target: T1, yeast reductoisomerase (Saccharomyces cerevisiae, UniProt P06168); experiment: Stoichiometry of binding of the inhibitors to the yeast reductoisomerase; type: biochemical; settings: for stoichiometry of binding of the inhibitor to the yeast reductoisomerase: 0.1 nmol inhibitor completely inhibits 0.1 nmol enzyme; for type of inhibition (reversibility): yeast reductoisomerase
T1 sequence (P06168 48-395): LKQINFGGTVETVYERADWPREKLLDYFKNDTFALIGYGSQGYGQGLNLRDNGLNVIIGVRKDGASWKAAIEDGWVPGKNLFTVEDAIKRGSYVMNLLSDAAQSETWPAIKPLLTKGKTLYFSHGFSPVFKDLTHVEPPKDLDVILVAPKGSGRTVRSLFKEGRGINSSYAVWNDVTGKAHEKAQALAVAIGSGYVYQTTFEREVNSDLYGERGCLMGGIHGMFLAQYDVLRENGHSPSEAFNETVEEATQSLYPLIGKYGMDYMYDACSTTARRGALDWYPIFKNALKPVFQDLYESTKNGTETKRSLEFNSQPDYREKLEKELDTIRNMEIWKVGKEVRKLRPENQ
Procedure: FIGS. 6A and 6B: Stoichiometry for binding of the inhibitors dimethylphosphinoyl-2-hydroxyacetate and N-hydroxy-N-isopropyloxamate to the yeast reductoisomerase. The inhibitors Hoe 704 [A] and IpOHA [B] (0.1 nmol) are incubated with varying amounts of enzyme (0 to 0.4 nmol) for 20 minutes at 25° C. with 25 nmol of NADPH and 0.25 μmol of Mg^2+ in a volume of 10 μl. The enzyme activity measurements are carried out at 25° C. in 1 ml of the following reaction medium: 10 mM MgCl2, 250 μM NADPH, 0.48 mM AHB, and in 50 mM sodium Hepes buffer, pH 7.5.
The kinetic parameters for the yeast reductoisomerase were determined by following the evolution of the enzyme reaction in the spectrophotometer under saturating conditions with respect to magnesium, to NADPH and to AHB or AL substrate. All the enzyme activity measurements were carried out in a quartz cuvette with an optical path of 1 cm, containing sodium Hepes buffer (50 mM, pH 7.5), 10 mM MgCl2, 250 μM NADPH, in a final volume of 1 ml, at 25° C. The enzyme reaction was initiated by adding 0.48 mM of AHB or of AL. The evolution of this reaction was followed by virtue of the decrease in absorption of NADPH at 340 nm.
The study of the stoichiometry of binding of the inhibitors N-hydroxy-N-isopropyl-oxamate and dimethylphosphinoyl-2-hydroxyacetate was carried out by incubating varying amounts of enzyme (from 0.1 to 0.4 nmol) with a constant amount of inhibitor for 20 minutes, with 25 nmol of NADPH and 0.25 μmol of MgCl2, in a final volume of 10 μl. The reactions are initiated by adding 0.48 mM AHB in 50 mM sodium Hepes buffer, pH 7.5, containing 10 mM MgCl2.
In the presence of 0.1 nmol of dimethylphosphinoyl-2-hydroxyacetate, an enzyme activity is detected only with amounts of enzyme greater than […]. Similarly, in the presence of 0.1 nmol of N-hydroxy-N-isopropyloxamate, an enzyme activity is detected only for amounts of enzyme greater than 0.1 nmol (FIG. 6). In addition, for these two inhibitors, when the enzyme is in excess relative to the inhibitor in the reaction medium, the enzyme activities increase in parallel with those of the control without inhibitor. […] In fact, in the case of irreversible inhibition, in the presence of a low amount of enzyme, all the enzyme complexes with the inhibitor. The enzyme activity is then zero, since there is no longer any free enzyme in the reaction medium. When the amount of enzyme present in the reaction medium is greater than the amount of inhibitor, the free enzyme in excess in the medium then behaves like the control without inhibitor (straight line parallel to the control).

[5] = target: T1, yeast reductoisomerase; experiment: Kinetics of inhibition of the yeast reductoisomerase (NADPH absorbance at 340 nm); type: biochemical; settings: for mechanism of inhibition with respect to the AHB substrate: 1/m3 linear in AHB concentration, enzyme 110 nM; for k0, inhibitor/enzyme association constant: yeast reductoisomerase 110 nM, 25° C., pH 7.5, AHB varied
Procedure: (§1) FIGS. 7A and 7B: Kinetics of inhibition of the yeast reductoisomerase in the presence of the inhibitors dimethylphosphinoyl-2-hydroxyacetate [A] and N-hydroxy-N-isopropyloxamate [B]. The enzyme activity measurements are carried out at 25° C. in 1 ml of the following reaction medium: 10 mM MgCl2, 250 μM NADPH, 0.48 mM AHB in 50 mM sodium Hepes buffer, pH 7.5, and in the presence of enzyme 110 nM.
The reactions are initiated by simultaneously adding varying amounts of inhibitors dimethylphosphinoyl-2-hydroxyacetate [A] and N-hydroxy-N-isopropyloxamate [B] (from 2 μM to 30 μM) to the reaction medium. The curves are plotted according to the equation (1), which makes it possible to determine the values for Kobs, the apparent rate of formation of the enzyme-inhibitor complex.
as §1, with “FIGS. 8A and 8B:” for “FIGS. 7A and 7B:”, “8A and 8B: Kinetics of” for “7A and 7B: Kinetics of”, “of enzyme at 110 nM.” for “of enzyme 110 nM.”
The reactions are initiated by simultaneously adding varying amounts of inhibitors [A] and [B] (from 2 μM to 50 μM) to the reaction medium.
FIGS. 9A and 9B: Determination of the association constant k0 for the dimethylphosphinoyl-2-hydroxyacetate [A] and for the N-hydroxy-N-isopropyloxamate [B] on the yeast reductoisomerase using the representation 1/Kobs as a function of the concentration of substrate AHB. The enzyme activity measurements are carried out at 25° C. in 1 ml of the following reaction medium: 10 mM MgCl2, 250 μM NADPH, from 125 μM to 2.375 mM AHB, and in 50 mM sodium Hepes buffer, pH 7.5, and in the presence of enzyme at 110 nM. The reactions are initiated by simultaneously adding varying amounts of substrate AHB (from 125 μM to 2.375 mM) and the inhibitors [A] (10 μM) and [B] (15 μM) to the reaction medium.
The curves are plotted according to the equation (3), which makes it possible to determine the values for k0, the rate of association of the inhibitor with the enzyme.
The effect of the inhibitors N-hydroxy-N-isopropyloxamate and dimethylphosphinoyl-2-hydroxyacetate on the yeast reductoisomerase was followed over time by measuring the decrease in absorbence of NADPH at 340 nm, in a spectrophotometer. […]
Equation (1): OD340=m1+(m2−m1).e^(−m3.t) where the parameters are as follows: • OD340 is the optical density measured on a spectrophotometer at 340 nm at time “t” • m1 the optical density when “t” tends toward infinity • m2 the initial optical density • m3 the product of the concentration of inhibitor multiplied by the apparent disappearance constant for NADPH. […]

[6] = test system: Pythium ultimum; type: cell-based
[7] = target: plant reductoisomerase (Spinacia oleracea, UniProt Q01292); settings: cited from earlier work
Chain of plant reductoisomerase (Q01292 73-595): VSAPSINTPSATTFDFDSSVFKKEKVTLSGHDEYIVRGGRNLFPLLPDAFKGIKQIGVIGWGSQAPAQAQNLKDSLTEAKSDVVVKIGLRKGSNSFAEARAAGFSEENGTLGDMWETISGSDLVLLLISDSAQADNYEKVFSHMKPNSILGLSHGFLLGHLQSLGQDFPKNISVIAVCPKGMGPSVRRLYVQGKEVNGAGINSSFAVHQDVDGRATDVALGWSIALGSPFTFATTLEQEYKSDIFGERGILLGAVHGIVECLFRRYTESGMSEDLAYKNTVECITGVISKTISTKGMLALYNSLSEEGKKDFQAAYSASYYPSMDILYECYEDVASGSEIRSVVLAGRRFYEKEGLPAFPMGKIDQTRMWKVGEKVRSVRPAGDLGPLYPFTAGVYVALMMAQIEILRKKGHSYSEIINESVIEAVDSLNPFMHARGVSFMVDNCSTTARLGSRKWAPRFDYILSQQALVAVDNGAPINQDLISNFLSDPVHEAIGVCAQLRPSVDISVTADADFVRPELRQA

[8] = test system: Ustilago nuda; type: cell-based
[9] = test system: all the sensitive fungal species; type: cell-based
[10] = test system: Botrytis cinerea; type: cell-based
[11] = Magnaporthe grisea, liquid minimum medium (Table 5; text gives concentrations in μM)

CC(C)N(O)C(=O)C(=O)O [N-hydroxy-N-isopropyloxamate]
spore germination ([1]; 10 mM, in water or in minimum medium, at 24 and 72 hours): does not inhibit
spore germination ([1]; 1 and 3 μM, minimum medium, days 0 and 2): not blocked
ID50: concentration which inhibits fungal growth by 50% [2]: 1
ID80: concentration which inhibits fungal growth by 80% [2]: 3
Level of sensitivity to IpOHA [2]: Sensitive
concentration from which growth is inhibited [2]: ≥ 0.3 µM
mean percentage of growth of the M. grisea fungus ([3]; 0.03 μM inhibitor, MM + leucine, valine, isoleucine 0.3 mM (MM + ILV)): 77.5%
mean percentage of growth of the M. grisea fungus ([3]; 0.03 μM inhibitor, minimum medium (MM)): 92%
mean percentage of growth of the M. grisea fungus ([3]; 0.1 μM inhibitor, MM + ILV 0.3 mM): 83.5%
mean percentage of growth of the M. grisea fungus ([3]; 0.1 μM inhibitor, minimum medium (MM)): 89%
mean percentage of growth of the M. grisea fungus ([3]; 0.3 μM inhibitor, MM + ILV 0.3 mM): 81%
mean percentage of growth of the M. grisea fungus ([3]; 0.3 μM inhibitor, minimum medium (MM)): 72%
mean percentage of growth of the M. grisea fungus ([3]; 1 μM inhibitor, MM + ILV 0.3 mM): 72.5%
mean percentage of growth of the M. grisea fungus ([3]; 1 μM inhibitor, minimum medium (MM)): 56%
mean percentage of growth of the M. grisea fungus ([3]; 3 μM inhibitor, MM + ILV 0.3 mM): 71.5%
mean percentage of growth of the M. grisea fungus ([3]; 3 μM inhibitor, minimum medium (MM)): 13%
toxicity on growth when minimum medium is supplemented with valine, leucine and isoleucine ([3]; ILV at 0.3 mM, whatever the inhibitor concentration): lifted
Level of sensitivity to IpOHA ([3]; Magnaporthe grisea): Sensitive
ID50: concentration which inhibits fungal growth by 50% [3, 11]: 1
ID80: concentration which inhibits fungal growth by 80% [3, 11]: 3
inhibition of fungal growth ([3]; inhibitor 0.3 to 1 μM, MM medium, from the 3rd day): approximately 50%
ID80 (concentration of inhibitor such that the inhibition in fungal growth is 80%) ([3]; minimum medium, 5th day of growth): 1000 nM
concentration from which inhibition of growth is observed ([3]; minimum medium, from the 3rd day of growth): ≥ 0.3 µM
stoichiometry of binding of the inhibitor to the yeast reductoisomerase [4]: 1 mol of inhibitor per mole of enzyme
amount of enzyme above which an enzyme activity is detected ([4]; 0.1 nmol inhibitor, 20 min preincubation with NADPH and Mg2+): greater than 0.1 nmol
type of inhibition (reversibility) [4]: irreversible inhibitors
mechanism of inhibition with respect to the AHB substrate [5]: competitive
k0, inhibitor/enzyme association constant [5]: 12 433 M^−1.s^−1
ID50: concentration which inhibits fungal growth by 50% [6]: 10
ID80: concentration which inhibits fungal growth by 80% [6]: 30
Level of sensitivity to IpOHA [6]: Moderately sensitive
concentration from which growth is inhibited [6]: ≥ 10 µM
k0, inhibitor/enzyme association constant [7]: 1900 M⁻¹ s⁻¹
ID50: concentration which inhibits fungal growth by 50% [8]: 3
ID80: concentration which inhibits fungal growth by 80% [8]: 30
IpOHA concentrations for which inhibition is lifted by isoleucine, leucine and valine [8]: less than 30 μM
Level of sensitivity to IpOHA [8]: Moderately sensitive
concentration from which growth is inhibited [8]: ≥ 10 µM
toxicity when minimum medium is supplemented with isoleucine, leucine and valine [9]: lifted
Level of sensitivity to IpOHA [10]: Resistant
effect on growth at the highest concentration used [10]: not affected

CP(C)(=O)C(O)C(=O)O (centres unmarked) [dimethylphosphinoyl-2-hydroxyacetate]
decrease in growth compared to control without inhibitor ([3]; inhibitor at 2 mM, MM medium, 6th and 7th day of growth): 50%
stoichiometry of binding of the inhibitor to the yeast reductoisomerase [4]: 1 mol of inhibitor per mole of enzyme
type of inhibition (reversibility) [4]: irreversible inhibitors
mechanism of inhibition with respect to the AHB substrate [5]: competitive
k0, inhibitor/enzyme association constant [5]: 7721 M⁻¹ s⁻¹
k0, inhibitor/enzyme association constant [7]: 22 000 M^−1.s^−1

Reference: patent US7166706B2 (priority 2001, dated 2007)
